Source: the NIST ThermoML archive (doi:10.1016/j.jct.2009.01.014)
Several values for one entry are separate records, joined by “and”; a condition that tells them apart may be missing. Identical values can stand only once. Numbers after ± are expanded uncertainties.

Test: molar heat capacity at constant pressure
Details: 101.33 kPa, Vacuum adiabatic calorimetry

[Al+3].[Al+3].[Co+2].[O-2].[O-2].[O-2].[O-2] [aluminium cobalt oxide]
Details	molar heat capacity at constant pressure
4.72 K, Crystal 2	0.13 ± 0.08 J/K/mol
5 K, Crystal 2	0.187 ± 0.11 J/K/mol
5.71 K, Crystal 2	0.32 ± 0.19 J/K/mol
6 K, Crystal 2	0.323 ± 0.19 J/K/mol
6.45 K, Crystal 2	0.6 ± 0.36 J/K/mol
6.71 K, Crystal 2	0.26 ± 0.16 J/K/mol
6.88 K, Crystal 2	0.73 ± 0.44 J/K/mol
7 K, Crystal 2	0.905 ± 0.54 J/K/mol
7.21 K, Crystal 2	0.74 ± 0.61 J/K/mol
7.25 K, Crystal 2	1.59 ± 1 J/K/mol
7.46 K, Crystal 2	0.83 ± 0.5 J/K/mol
7.65 K, Crystal 2	2.56 ± 3.5 J/K/mol
7.66 K, Crystal 2	0.96 J/K/mol
7.81 K, Crystal 2	1.14 ± 0.68 J/K/mol
7.85 K, Crystal 2	0.98 ± 0.59 J/K/mol
7.94 K, Crystal 2	1.38 ± 0.9 J/K/mol
8 K, Crystal 2	3.8 ± 2.3 J/K/mol and 2.02 ± 1.2 J/K/mol
8.05 K, Crystal 2	1.67 ± 1 J/K/mol
8.17 K, Crystal 2	2 ± 1.2 J/K/mol
8.29 K, Crystal 2	2.32 ± 1.4 J/K/mol
8.32 K, Crystal 2	6.21 ± 4.5 J/K/mol
8.47 K, Crystal 2	1.8 ± 1.1 J/K/mol
8.62 K, Crystal 2	3.37 ± 2.1 J/K/mol
8.66 K, Crystal 2	6.33 ± 3.8 J/K/mol
8.71 K, Crystal 2	5.19 ± 3.1 J/K/mol and 7.23 ± 4.3 J/K/mol
8.98 K, Crystal 2	3.72 ± 2.2 J/K/mol
9.28 K, Crystal 1	4.54 ± 0.27 J/K/mol
9.32 K, Crystal 1	4.26 ± 0.26 J/K/mol
9.33 K, Crystal 1	3.86 ± 0.23 J/K/mol
9.95 K, Crystal 1	4.26 ± 0.26 J/K/mol
10 K, Crystal 1	4.27 ± 0.26 J/K/mol
10.45 K, Crystal 1	4.03 ± 0.24 J/K/mol
10.5 K, Crystal 1	4.18 ± 0.25 J/K/mol
10.76 K, Crystal 1	4.31 ± 0.26 J/K/mol
11.38 K, Crystal 1	4.5 ± 0.27 J/K/mol
11.87 K, Crystal 1	4.28 ± 0.26 J/K/mol
12.04 K, Crystal 1	4.33 ± 0.26 J/K/mol
12.41 K, Crystal 1	4.39 ± 0.27 J/K/mol
12.96 K, Crystal 1	4.32 ± 0.26 J/K/mol
13.36 K, Crystal 1	4.4 ± 0.27 J/K/mol
13.69 K, Crystal 1	4.41 ± 0.27 J/K/mol
13.73 K, Crystal 1	4.37 ± 0.26 J/K/mol
14.57 K, Crystal 1	4.32 ± 0.26 J/K/mol
14.84 K, Crystal 1	4.36 ± 0.26 J/K/mol
15 K, Crystal 1	4.19 ± 0.25 J/K/mol
15.02 K, Crystal 1	4.19 ± 0.25 J/K/mol
15.35 K, Crystal 1	4.45 ± 0.27 J/K/mol
16.08 K, Crystal 1	4.3 ± 0.26 J/K/mol
16.27 K, Crystal 1	4.22 ± 0.25 J/K/mol
16.99 K, Crystal 1	4.37 ± 0.26 J/K/mol
17.59 K, Crystal 1	4.22 ± 0.25 J/K/mol
17.64 K, Crystal 1	4.2 ± 0.25 J/K/mol
18.61 K, Crystal 1	4.3 ± 0.26 J/K/mol
18.8 K, Crystal 1	4.15 ± 0.25 J/K/mol
19.9 K, Crystal 1	4.28 ± 0.26 J/K/mol
20 K, Crystal 1	4.12 ± 0.25 J/K/mol
20.2 K, Crystal 1	4.24 ± 0.26 J/K/mol
20.34 K, Crystal 1	4.12 ± 0.25 J/K/mol
20.92 K, Crystal 1	4.12 ± 0.25 J/K/mol
21.76 K, Crystal 1	4.2 ± 0.25 J/K/mol
21.88 K, Crystal 1	4.24 ± 0.26 J/K/mol
22.65 K, Crystal 1	4.13 ± 0.25 J/K/mol
23.29 K, Crystal 1	4.19 ± 0.25 J/K/mol
24.79 K, Crystal 1	4.18 ± 0.25 J/K/mol
24.8 K, Crystal 1	4.22 ± 0.25 J/K/mol
25 K, Crystal 1	4.19 ± 0.25 J/K/mol
26.22 K, Crystal 1	4.35 ± 0.26 J/K/mol
26.96 K, Crystal 1	4.24 ± 0.26 J/K/mol
27.5 K, Crystal 1	4.17 ± 0.25 J/K/mol
28.68 K, Crystal 1	4.27 ± 0.26 J/K/mol
29.17 K, Crystal 1	4.26 ± 0.26 J/K/mol
29.76 K, Crystal 1	4.34 ± 0.26 J/K/mol
30 K, Crystal 1	4.35 ± 0.26 J/K/mol
31.39 K, Crystal 1	4.52 ± 0.1 J/K/mol
31.42 K, Crystal 1	4.55 ± 0.1 J/K/mol
33.59 K, Crystal 1	4.79 ± 0.1 J/K/mol
34.14 K, Crystal 1	4.77 ± 0.1 J/K/mol
35 K, Crystal 1	4.98 ± 0.11 J/K/mol
35.82 K, Crystal 1	5.1 ± 0.11 J/K/mol
36.43 K, Crystal 1	5.08 ± 0.11 J/K/mol
38.1 K, Crystal 1	5.31 ± 0.11 J/K/mol
38.48 K, Crystal 1	5.3 ± 0.11 J/K/mol
40 K, Crystal 1	5.71 ± 0.12 J/K/mol
40.31 K, Crystal 1	5.7 ± 0.12 J/K/mol
40.44 K, Crystal 1	5.8 ± 0.12 J/K/mol
42.02 K, Crystal 1	6.02 ± 0.13 J/K/mol
42.79 K, Crystal 1	6.32 ± 0.13 J/K/mol
43.71 K, Crystal 1	6.48 ± 0.14 J/K/mol
45 K, Crystal 1	6.87 ± 0.14 J/K/mol
45.17 K, Crystal 1	6.92 ± 0.14 J/K/mol
45.43 K, Crystal 1	6.93 ± 0.14 J/K/mol
47.17 K, Crystal 1	7.42 ± 0.15 J/K/mol
47.58 K, Crystal 1	7.59 ± 0.16 J/K/mol
48.91 K, Crystal 1	7.98 ± 0.16 J/K/mol
50 K, Crystal 1	8.31 ± 0.17 J/K/mol
50.03 K, Crystal 1	8.32 ± 0.05 J/K/mol
50.67 K, Crystal 1	8.52 ± 0.05 J/K/mol
52.44 K, Crystal 1	9.07 ± 0.06 J/K/mol
52.51 K, Crystal 1	9.11 ± 0.06 J/K/mol
54.22 K, Crystal 1	9.63 ± 0.06 J/K/mol
55 K, Crystal 1	9.96 ± 0.06 J/K/mol
55.03 K, Crystal 1	9.97 ± 0.06 J/K/mol
56.02 K, Crystal 1	10.33 ± 0.06 J/K/mol
57.57 K, Crystal 1	10.87 ± 0.06 J/K/mol
57.82 K, Crystal 1	10.96 ± 0.06 J/K/mol
59.64 K, Crystal 1	11.67 ± 0.07 J/K/mol
60 K, Crystal 1	11.79 ± 0.07 J/K/mol
60.15 K, Crystal 1	11.85 ± 0.07 J/K/mol
61.46 K, Crystal 1	12.35 ± 0.07 J/K/mol
62.75 K, Crystal 1	12.88 ± 0.07 J/K/mol
63.3 K, Crystal 1	13.11 ± 0.07 J/K/mol
65 K, Crystal 1	13.79 ± 0.07 J/K/mol
65.14 K, Crystal 1	13.85 ± 0.07 J/K/mol
65.38 K, Crystal 1	13.94 ± 0.07 J/K/mol
66.99 K, Crystal 1	14.6 ± 0.08 J/K/mol
68.03 K, Crystal 1	15.06 ± 0.08 J/K/mol
68.85 K, Crystal 1	15.41 ± 0.08 J/K/mol
70 K, Crystal 1	15.92 ± 0.08 J/K/mol
70.7 K, Crystal 1	16.23 ± 0.08 J/K/mol
70.71 K, Crystal 1	16.22 ± 0.08 J/K/mol
72.59 K, Crystal 1	17.07 ± 0.09 J/K/mol
73.39 K, Crystal 1	17.44 ± 0.09 J/K/mol
74.46 K, Crystal 1	17.93 ± 0.09 J/K/mol
75 K, Crystal 1	18.18 ± 0.09 J/K/mol
76.1 K, Crystal 1	18.69 ± 0.09 J/K/mol
76.35 K, Crystal 1	18.81 ± 0.09 J/K/mol
78.23 K, Crystal 1	19.67 ± 0.1 J/K/mol
78.83 K, Crystal 1	19.98 ± 0.1 J/K/mol
80 K, Crystal 1	20.58 ± 0.83 J/K/mol
80.13 K, Crystal 1	20.6 ± 0.1 J/K/mol
81.57 K, Crystal 1	21.31 ± 0.1 J/K/mol
82.03 K, Crystal 1	21.53 ± 0.1 J/K/mol
83.93 K, Crystal 1	22.47 ± 0.11 J/K/mol
84.33 K, Crystal 1	22.66 ± 0.11 J/K/mol
85 K, Crystal 1	23 ± 0.11 J/K/mol
85.84 K, Crystal 1	23.42 ± 0.11 J/K/mol
86.76 K, Crystal 1	23.89 ± 0.11 J/K/mol
87.1 K, Crystal 1	24.07 ± 0.12 J/K/mol
87.75 K, Crystal 1	24.35 ± 0.12 J/K/mol
89.66 K, Crystal 1	25.35 ± 0.12 J/K/mol
89.88 K, Crystal 1	25.48 ± 0.12 J/K/mol
90 K, Crystal 1	25.54 ± 0.19 J/K/mol
90.38 K, Crystal 1	25.72 ± 0.19 J/K/mol
91.58 K, Crystal 1	26.35 ± 0.19 J/K/mol
92.68 K, Crystal 1	26.93 ± 0.19 J/K/mol
93.5 K, Crystal 1	27.35 ± 0.19 J/K/mol
94.03 K, Crystal 1	27.61 ± 0.2 J/K/mol
95 K, Crystal 1	28.14 ± 0.2 J/K/mol
95.42 K, Crystal 1	28.36 ± 0.2 J/K/mol
95.49 K, Crystal 1	28.4 ± 0.2 J/K/mol
97.35 K, Crystal 1	29.35 ± 0.2 J/K/mol
97.7 K, Crystal 1	29.56 ± 0.2 J/K/mol
98.31 K, Crystal 1	29.91 ± 0.2 J/K/mol
99.28 K, Crystal 1	30.41 ± 0.2 J/K/mol
100 K, Crystal 1	30.76 ± 0.2 J/K/mol
101.14 K, Crystal 1	31.29 ± 0.21 J/K/mol
101.4 K, Crystal 1	31.39 ± 0.21 J/K/mol
105 K, Crystal 1	33.58 ± 0.21 J/K/mol
105.11 K, Crystal 1	33.64 ± 0.21 J/K/mol
108.84 K, Crystal 1	35.84 ± 0.22 J/K/mol
110 K, Crystal 1	36.47 ± 0.22 J/K/mol
112.59 K, Crystal 1	37.85 ± 0.23 J/K/mol
116.35 K, Crystal 1	39.89 ± 0.23 J/K/mol
118.19 K, Crystal 1	40.87 ± 0.24 J/K/mol
120 K, Crystal 1	41.53 ± 0.24 J/K/mol
120.13 K, Crystal 1	41.61 ± 0.24 J/K/mol
121.04 K, Crystal 1	42.24 ± 0.24 J/K/mol
123.91 K, Crystal 1	44.18 ± 0.25 J/K/mol and 44.16 ± 0.25 J/K/mol
126.79 K, Crystal 1	45.8 ± 0.25 J/K/mol
127.71 K, Crystal 1	46.35 ± 0.25 J/K/mol
129.67 K, Crystal 1	47.46 ± 0.26 J/K/mol
130 K, Crystal 1	47.65 ± 0.26 J/K/mol
131.52 K, Crystal 1	48.53 ± 0.26 J/K/mol
132.55 K, Crystal 1	49.08 ± 0.26 J/K/mol
135.33 K, Crystal 1	50.7 ± 0.27 J/K/mol
135.44 K, Crystal 1	50.72 ± 0.27 J/K/mol
138.34 K, Crystal 1	52.33 ± 0.28 J/K/mol
139.16 K, Crystal 1	52.77 ± 0.28 J/K/mol
140 K, Crystal 1	53.26 ± 0.28 J/K/mol
141.23 K, Crystal 1	53.98 ± 0.28 J/K/mol
142.99 K, Crystal 1	55.02 ± 0.28 J/K/mol
144.14 K, Crystal 1	55.61 ± 0.29 J/K/mol
